Laboratory results as given in patent US10532066B2, “Surfactant lipids, compositions thereof, and uses thereof” (National Jewish Health, priority 2007, dated 2020).

Assays:
TLR8 = assay: TLR agonist IL-8 production in primary human neutrophils, TLR8; assay type: cell-based; settings: polyU, 5-24 h
Description: (§1) In this experiment, multiple TLRs were stimulated with defined TLR agonists for 5-24 h as indicated, and the IL-8 production was measured. In each case the maximal stimulation by agonist is set at 100% and the antagonism by POPG is expressed as the relative % response. The Controls consist of no treatment, or treatment with POPG, in the absence of agonist as indicated. The agonists for the TLRs consist of Pam3Cys for TLR1/2, double stranded RNA (poly IC) for TLR3, Gram-negative lipopolysaccharide (LPS) for TLR4, and single stranded RNA (polyU) for TLR7/8.

TLR1 = target: T1, TLR1 (Homo sapiens, UniProt Q15399); assay: TLR agonist IL-8 production in primary human neutrophils, TLR1; assay type: cell-based; set-up: endogenous in cells; host or cells: primary human neutrophils; settings: Pam3Cys, 5-24 h
T1 sequence (Q15399 25-786): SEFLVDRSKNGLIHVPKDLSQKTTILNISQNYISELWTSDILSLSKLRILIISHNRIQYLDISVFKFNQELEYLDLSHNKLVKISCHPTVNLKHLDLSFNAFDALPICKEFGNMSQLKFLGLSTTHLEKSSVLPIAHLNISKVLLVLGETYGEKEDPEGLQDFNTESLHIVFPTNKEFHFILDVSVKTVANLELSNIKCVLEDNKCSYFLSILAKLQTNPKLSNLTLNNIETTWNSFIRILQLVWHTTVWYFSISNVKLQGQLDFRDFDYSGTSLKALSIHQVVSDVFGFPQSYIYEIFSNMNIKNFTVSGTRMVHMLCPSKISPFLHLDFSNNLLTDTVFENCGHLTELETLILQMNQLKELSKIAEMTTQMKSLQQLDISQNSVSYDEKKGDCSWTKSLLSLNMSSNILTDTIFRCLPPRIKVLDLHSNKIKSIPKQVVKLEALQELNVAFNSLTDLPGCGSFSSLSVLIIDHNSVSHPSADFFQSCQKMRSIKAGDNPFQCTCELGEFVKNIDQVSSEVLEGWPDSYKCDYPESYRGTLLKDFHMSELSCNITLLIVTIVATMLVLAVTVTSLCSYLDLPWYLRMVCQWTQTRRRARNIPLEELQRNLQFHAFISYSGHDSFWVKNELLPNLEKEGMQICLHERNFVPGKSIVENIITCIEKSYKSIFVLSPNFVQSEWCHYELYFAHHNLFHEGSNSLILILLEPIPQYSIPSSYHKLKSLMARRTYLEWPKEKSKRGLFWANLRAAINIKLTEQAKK
Description: as §1

PstB2 = target: T2, PstB2 (Saccharomyces cerevisiae, UniProt P53844); assay: PstB2 control protein binding to solid phase POPG; set-up: species or system yeast; settings: PstB2 1 μg/ml
T2 construct: made in house; host or cells: baculovirus-insect cell expression system
T2 sequence (P53844 whole entry): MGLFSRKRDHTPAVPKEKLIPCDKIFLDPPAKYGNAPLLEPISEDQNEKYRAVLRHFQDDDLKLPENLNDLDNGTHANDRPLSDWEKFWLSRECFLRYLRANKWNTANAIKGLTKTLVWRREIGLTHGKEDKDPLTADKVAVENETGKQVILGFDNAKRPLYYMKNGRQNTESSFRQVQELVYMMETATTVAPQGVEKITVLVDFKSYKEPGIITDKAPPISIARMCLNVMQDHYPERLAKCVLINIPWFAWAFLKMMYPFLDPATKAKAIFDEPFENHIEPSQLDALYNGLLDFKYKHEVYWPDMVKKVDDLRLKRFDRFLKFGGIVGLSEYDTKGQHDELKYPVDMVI
Source text: FIG. 16. MD-2 preferentially binds POPG.

[1] = tested on: Respiratory Syncytial Virus (RSV); assay: Cytopathic effects of RSV upon BEAS2B cells (photomicrography); assay type: cell-based
Description: Monolayers of BEAS2B cells were infected with RSV at a multiplicity of 3 for 72 h. Infections were performed on cells in either the absence or the presence of POPG (200 ug/ml). The cell monolayers were photographed at a magnification of 200×. Controls consisted of no viral challenge in either the presence or absence of POPG as indicated.
Monolayers of BEAS2B cells were infected with RSV at a multiplicity of 3 for 72 h. Infections were performed on cells in either the absence (b) or the presence (c,f) of POPG (200 ug/ml) and POPC (200 ug/ml) as indicated. Cells were photographed at a magnification of 200×. Controls (a,d,e) consisted of cell layers either not exposed to virus or exposed to POPG, and POPC in the absence of virus as indicated.
Monolayers of BEAS2B cells were infected with RSV at a multiplicity of 0.5-1, in either the presence or absence of 200 ug/ml POPG, or 200 ug/ml POPC, as indicated.
Monolayers of BEAS2B cells were either uninfected (CONL) or challenged with RSV at a multiplicity of 0.5/cell (RSV). Where indicated in the FIG. 44, RSV challenged cells were also treated with POPC (200 ug/ml) or POPG (200 ug/ml) liposomes; or POPG nanodiscs (nanoPOPG) at concentrations ranging from 100-300 ug/ml. Selected panels and fields are also shown at 400× magnification in FIG. 45.
Where indicated in FIG. 46, RSV challenged cells were also treated with nanodisc forms of dipalmitoyl-phosphatidylcholine (nanoDPPC), palmitoyl-oleoyl-phosphatidylcholine (nanoPOPC), or dioleoyl-phosphatidylcholine (nanoDOPC), dipalmitoyl-phosphatidylglycerol (nanoDPPG), dimyristoyl-phosphatidylglycerol (nanoDMPG), or dioleoyl-phosphatidylglycerol (nanoDOPG). At 72 h after infection, the cultures were examined by photomicrography at a magnification of 200×.

multiple TLRs = assay: Activation of RAW 264.7 macrophages by multiple TLRs (TNFα, Example 8); assay type: cell-based; settings: 200 ug/ml POPG, 5 hours
RSV = RSV infection of mice; assay type: in vivo; settings: 10^7 RSV with 200 ug/ml POPG, three days
Description: Groups of 8 mice were inoculated with 10^7 RSV in either the absence (RSV), or presence of 200 ug/ml POPG (RSV+POPG). Control experiments consisted of UV inactivated RSV (URV), or saline treatment (CON), or POPG treatment without virus (POPG). Three days after the inoculations, the animals were killed and the lungs harvested and processed for viral content by quantitative plaque assay (left panel of FIG. 41), and histopathology (right panel of FIG. 41)

[2] = tested on: Respiratory Syncytial Virus (RSV); assay: RSV replication in BEAS2B cells (anti-RSV antibody staining); assay type: cell-based; settings: multiplicity 3, 72 h, POPG 200 ug/ml
Description: Monolayers of BEAS2B and NHBE cells were infected with RSV at a multiplicity of 3 for 72 h. Infections were performed on cells in either the absence or the presence of POPG (200 ug/ml). The cell monolayers were fixed and stained with goat anti-human RSV antibody conjugated with horseradish peroxidase. The presence of the antibody was detected with diaminobenzamidine. Controls consisted of cell layers not exposed to the virus or exposed to POPG in the absence of virus as indicated.

Structure (SMILES): CCCCCCCC/C=C\CCCCCCCC(=O)O[C@H](COC(=O)CCCCCCCCCCCCCCC)COP(=O)(O)OCC(O)CO (some centres unmarked) [POPG, palmitoyl-oleoyl-phosphatidylglycerol]
- activity of TLR8 (IL-8 production) (TLR8): inhibits
- activity of TLR1 (IL-8 production) (TLR1): inhibits
- binding to PstB2 (PstB2): not
- killing of cells by RSV ([1]; multiplicity 0.5-1, 72 h, 200 ug/ml): prevents the killing
- cytopathic effects of RSV ([1]; multiplicity 3, 72 h, lipid 200 ug/ml): prevents the cytopathic effects
- activation of RAW 264.7 macrophages by multiple TLRs (TNFα) (multiple TLRs): inhibits activation
- RSV infection in vivo (lung viral content, histopathology) (RSV): suppresses
- viral replication [2]: prevents viral replication
